Measured values from patent US20210221822A1, “TRICYCLIC DERIVATIVES INHIBITOR, PREPARATION METHOD, AND APPLICATIONS THEREOF” (Jiangsu Hansoh Pharmaceutical Group Co., Ltd., priority 2018, published 2021).
pIC50: −log10 of the molar value. Read-outs that look alike come from different tables or passages of the source.

Assays:
PI3Kα = target: T1, PI3Kα (Homo sapiens, UniProt P42336); test: ADP-Glo lipid kinase assay, PI3Kα kinase activity; format: biochemical; conditions: ADP-Glo; 0.1 nM enzyme, 120 min, 50 μM ATP
T1 construct: purchased Promega V1721
Method: (§1) Experimental method: Promega's ADP-Glo lipid kinase assay method (Promega #V9102) was applied in this experiment. Lipid kinase PI3Kα/β/γ/δ catalyzed the generation of ADP from ATP in the presence of the substrate PIP2: 3PS and ATP. The lipid kinase activity was characterized by measuring the ADP content in the reaction, and the half inhibitory concentration IC50 of the compound on inhibiting PI3Kα/β/γ/δ kinase activity was thus obtained.
(§2) The kinase reaction was carried out in a white 384-well plate (Perkin Elmer #6007299). 2 μL of the compound solution of different concentrations diluted with ddH2O containing 1% DMSO was added to each well. 2 μL of ddH2O containing 1% DMSO was added to the positive control well. 2 μL of 0.1-2 nM PI3K kinase solution diluted with 5× kinase buffer (HEPES 250 mM, MgCl2 15 mM, NaCl 250 mM, BSA 0.05%) was added to each well. 2 μL of 5× kinase buffer was added to the negative control well. 4 μL of 50 μM substrate PIP2: 3PS (Promega #V1701) formulated with 10× Dilution buffer and ddH2O was added to all wells. Finally, 2 μL of […] ATP solution diluted with water was added to start the reaction. After the reaction was carried out at room temperature for 90 to 120 minutes, 10 μL of ADP-Glo Reagent (containing 10 mM MgCl2) was added to each well, and reacted at room temperature for 60 minutes to remove excess ATP in the reaction. 20 μL of Kinase Detection Reagent was added to each well, and reacted at room temperature in the dark for 20 minutes. The chemiluminescence value was measured by the BioTek Synergy H1 microplate reader.
(§3) The percentage inhibition data of the compound-treated well was calculated through the positive control well (DMSO control well) and negative control well (no kinase added) on the plate {% inhibition rate=100−[(test compound value−negative control value)]/(positive control value−negative control value)×100}. The IC50 value was calculated by fitting the data of different concentrations and corresponding percentage inhibition rates to a four-parameter nonlinear logic formula with GraphPad prism.

PI3Kβ = target: T2, PI3Kβ (Homo sapiens, UniProt P42338); test: ADP-Glo lipid kinase assay, PI3Kβ kinase activity; format: biochemical; conditions: 0.4 nM enzyme, 90 min, 100 μM ATP
T2 construct: purchased Carna 11-102
Method: as §1, §2, §3

PI3Kγ = target: T3, PI3Kγ (Homo sapiens, UniProt P48736); test: ADP-Glo lipid kinase assay, PI3Kγ kinase activity; format: biochemical; conditions: 0.4 nM enzyme, 120 min, 50 μM ATP
T3 construct: purchased Thermofisher PV4786
Method: as §1, §2, §3

PI3Kδ = target: T4, PI3Kδ (Homo sapiens, UniProt O00329); test: ADP-Glo lipid kinase assay, PI3Kδ kinase activity; format: biochemical; conditions: 0.1 nM enzyme, 90 min, 100 μM ATP
T4 construct: purchased Carna 11-103
Method: as §1, §2, §3

[1] = Pharmacokinetic (PK) assay in mice; format: in vivo; conditions: male, Balb/c, mouse, plasma, po, single intragastric 5 mg/kg; for AUC(0-t): read-out: Area under curve AUC0-t; for AUC(0-inf): read-out: Area under curve AUC0-∞; for half-life: read-out: Half-life t1/2(h) (converted); for MRT: read-out: Mean residence time MRT; for Tmax: read-out: Peak time tmax; for Cmax: read-out: Plasma concentration Cmax
Method: The pharmacokinetic assay of the preferred compounds of the examples of the present invention in mice was carried out in Balb/c male mice (Shanghai Jiesijie Laboratory Animal Co., LTD). • Administration mode: single intragastric administration. • Administration dose: 5 mg/10 ml/kg (body weight). • Formulation: the compound was dissolved in 0.5% CMC-Na by ultrasound to obtain a clear solution or homogeneous suspension. • Sampling points: 0.5, 1, 2, 4, 6, 8 and 24 hours after administration. • Sample process: • 1) 0.1 mL of blood was taken from the orbit, placed in a K2-EDTA tube, and centrifuged for 5 to 20 minutes at room temperature at 1000 to 3000×g to separate the plasma, which was then stored at −80° C. • 2) 160 uL of acetonitrile was added to 40 uL of plasma sample for precipitation, and then the mixture was centrifuged for 5 to 20 minutes at 500 to 2000×g. • 3) 100 uL of processed supernatant was taken and analyzed by LC/MS/MS assay to determine the concentration of the test compound. • LC-MS/MS assay: • Liquid chromatography condition: Shimadzu LC-20AD pump • Mass spectrometry condition: AB Sciex API 4000 mass spectrometer • Chromatographic column: phenomenex Gemiu 5 μm C18 50×4.6 mm • Mobile phase: solution A was 0.1% aqueous formic acid solution, and solution B was acetonitrile • Flow rate: 0.8 mL/min • Elution time: 0-4 minutes gradient elution • Pharmacokinetics: […]
The main parameters were calculated using WinNonlin 6.1.

[2] = Toxicity test of a 7-day repeatedly intragastric administration in SD rats; format: in vivo
Excerpt: (§4) 1) In the experiment, 112 rats (56 rats/sex) were divided into 14 groups by sex and body weight, wherein 70 rats were used for toxicology study (groups 1 to 7, 5 rats/sex/group) and 42 rats were used for toxicokinetics study (groups 8 to 14, 3 rats/sex/group).
2) As the vehicle control group, the animals in groups 1 and 8 were intragastrically administered 20% aqueous SBE-(3-CD (Captisol) solution.
(§5) 3) The animals in groups 2 and 9, groups 3 and 10, and groups 4 and 11 were intragastrically administered GDC-0077 at 10, 30 and 60 mg/kg, respectively.
(§6) 4) The animals in groups 5 and 12, groups 6 and 13, and groups 7 and 14 were intragastrically administered the compound of Example 51 at 10, 30 and 60 mg/kg, respectively.
(§7) 5) The animals were administered once a day for 7 consecutive days (the animals in groups 7 and 14 were administered for 6 consecutive days).
6) The administration volume was 10 mL/kg.
(§8) 7) During the experiment, items such as clinical observation, body weight, food intake, clinicopathological indicators (blood cell count, coagulation function, blood biochemistry), toxicokinetics and the like were studied.
8) All animals were euthanized on Day 8 (the animals in groups 7 and 14 were euthanized after administration on Day 6).
9) During the experiment, gross anatomy observation was carried out on animals in groups 1 to 7, animals in group 14 and dead animals (including animals in toxicokinetics study), and histopathological examination was carried out on abnormal tissues, gastrointestinal tissues (such as colon and cecum) and immune tissues (such as thymus).

[3] = Toxicokinetics in the 7-day repeated intragastric administration study in SD rats; format: in vivo, Sprague-Dawley (SD) rats; conditions: Sprague-Dawley, rat, plasma, po, read-out: average system exposure AUC
Excerpt: Liquid chromatography−mass spectrometry (detector: API4000, electrospray source (ESI) positive ion mode, column: Agilent ZORBAX XDB-C18 (3.5 μm, 2.1×50 mm)), which was used for the biological analysis of plasma sample.
as §4, §5, §6, §7, §8

[4] = SD rats, 10, 30 and 60 mg/kg (low, middle, high dose)

T4 sequence (O00329 whole entry): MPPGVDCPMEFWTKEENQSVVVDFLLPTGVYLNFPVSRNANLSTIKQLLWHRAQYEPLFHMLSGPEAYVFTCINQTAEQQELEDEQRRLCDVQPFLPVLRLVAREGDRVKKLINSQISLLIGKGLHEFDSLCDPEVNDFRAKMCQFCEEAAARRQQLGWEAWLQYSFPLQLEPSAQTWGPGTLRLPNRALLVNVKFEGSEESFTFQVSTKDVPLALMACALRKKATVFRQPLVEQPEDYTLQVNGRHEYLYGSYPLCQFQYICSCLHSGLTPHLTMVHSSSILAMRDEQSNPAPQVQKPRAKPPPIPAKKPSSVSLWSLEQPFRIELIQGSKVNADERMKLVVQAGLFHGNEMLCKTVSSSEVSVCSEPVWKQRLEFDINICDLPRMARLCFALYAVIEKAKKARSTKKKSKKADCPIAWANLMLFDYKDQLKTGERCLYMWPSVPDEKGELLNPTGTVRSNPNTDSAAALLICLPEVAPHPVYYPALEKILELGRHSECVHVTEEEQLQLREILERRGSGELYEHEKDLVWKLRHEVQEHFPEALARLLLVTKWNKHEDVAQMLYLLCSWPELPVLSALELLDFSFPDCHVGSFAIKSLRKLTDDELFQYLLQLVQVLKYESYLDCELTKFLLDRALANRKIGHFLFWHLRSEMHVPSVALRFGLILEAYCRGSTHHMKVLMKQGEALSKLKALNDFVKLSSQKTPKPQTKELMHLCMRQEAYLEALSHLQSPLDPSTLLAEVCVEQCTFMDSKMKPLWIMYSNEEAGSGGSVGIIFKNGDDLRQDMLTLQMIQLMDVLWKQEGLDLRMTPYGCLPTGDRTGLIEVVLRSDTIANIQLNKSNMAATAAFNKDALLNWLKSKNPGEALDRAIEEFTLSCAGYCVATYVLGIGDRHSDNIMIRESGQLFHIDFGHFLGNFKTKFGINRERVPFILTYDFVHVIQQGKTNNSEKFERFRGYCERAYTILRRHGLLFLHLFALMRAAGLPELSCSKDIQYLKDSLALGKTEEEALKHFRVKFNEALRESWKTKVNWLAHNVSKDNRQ
T4 sequence (P27986 whole entry partner): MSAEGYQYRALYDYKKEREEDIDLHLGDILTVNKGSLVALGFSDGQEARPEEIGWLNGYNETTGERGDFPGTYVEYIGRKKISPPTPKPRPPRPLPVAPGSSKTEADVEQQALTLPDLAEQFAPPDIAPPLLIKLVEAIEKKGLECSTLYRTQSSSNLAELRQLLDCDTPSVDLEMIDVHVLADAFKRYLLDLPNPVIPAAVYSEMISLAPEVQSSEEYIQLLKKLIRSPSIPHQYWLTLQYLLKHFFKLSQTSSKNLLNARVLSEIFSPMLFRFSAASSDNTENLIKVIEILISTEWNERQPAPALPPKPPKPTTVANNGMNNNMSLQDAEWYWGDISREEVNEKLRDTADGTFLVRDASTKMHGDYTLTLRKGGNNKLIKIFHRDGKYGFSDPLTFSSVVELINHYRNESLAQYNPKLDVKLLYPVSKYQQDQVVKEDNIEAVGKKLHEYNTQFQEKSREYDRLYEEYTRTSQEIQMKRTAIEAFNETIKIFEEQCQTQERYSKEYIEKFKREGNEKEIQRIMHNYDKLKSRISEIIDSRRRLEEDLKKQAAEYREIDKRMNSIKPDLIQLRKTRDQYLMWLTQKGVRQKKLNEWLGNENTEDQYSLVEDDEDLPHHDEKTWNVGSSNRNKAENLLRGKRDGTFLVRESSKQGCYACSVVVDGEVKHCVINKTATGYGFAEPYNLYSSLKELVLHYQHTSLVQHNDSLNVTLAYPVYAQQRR
T3 sequence (P48736 whole entry): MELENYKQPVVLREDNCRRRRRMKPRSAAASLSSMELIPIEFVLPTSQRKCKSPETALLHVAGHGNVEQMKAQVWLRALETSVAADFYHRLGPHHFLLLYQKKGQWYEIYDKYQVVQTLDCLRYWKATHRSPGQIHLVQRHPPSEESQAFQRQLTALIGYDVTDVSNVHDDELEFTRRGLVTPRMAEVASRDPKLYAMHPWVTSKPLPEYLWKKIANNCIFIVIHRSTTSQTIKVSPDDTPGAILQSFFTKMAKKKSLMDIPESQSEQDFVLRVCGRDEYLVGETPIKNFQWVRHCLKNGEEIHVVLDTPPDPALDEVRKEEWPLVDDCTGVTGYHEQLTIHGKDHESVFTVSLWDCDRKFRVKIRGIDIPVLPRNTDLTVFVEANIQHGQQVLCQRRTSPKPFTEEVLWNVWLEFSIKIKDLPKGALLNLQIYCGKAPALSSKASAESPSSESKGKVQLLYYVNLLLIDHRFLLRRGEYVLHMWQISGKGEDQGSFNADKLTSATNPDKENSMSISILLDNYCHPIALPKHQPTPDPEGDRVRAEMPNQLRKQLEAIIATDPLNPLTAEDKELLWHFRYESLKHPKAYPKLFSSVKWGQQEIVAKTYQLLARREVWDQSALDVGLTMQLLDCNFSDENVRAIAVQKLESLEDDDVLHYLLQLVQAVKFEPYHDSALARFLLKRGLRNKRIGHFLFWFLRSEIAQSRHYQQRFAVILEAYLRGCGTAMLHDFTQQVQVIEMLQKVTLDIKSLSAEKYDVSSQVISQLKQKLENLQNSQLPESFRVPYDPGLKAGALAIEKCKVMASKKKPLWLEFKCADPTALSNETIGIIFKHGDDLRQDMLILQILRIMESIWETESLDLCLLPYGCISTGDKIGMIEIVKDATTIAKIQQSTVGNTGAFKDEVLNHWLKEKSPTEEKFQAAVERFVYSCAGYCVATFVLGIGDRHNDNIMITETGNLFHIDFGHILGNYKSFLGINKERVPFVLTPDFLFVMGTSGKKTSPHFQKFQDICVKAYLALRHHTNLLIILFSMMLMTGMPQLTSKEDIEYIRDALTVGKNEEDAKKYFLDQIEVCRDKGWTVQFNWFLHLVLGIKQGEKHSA
T1 sequence (P42336 whole entry): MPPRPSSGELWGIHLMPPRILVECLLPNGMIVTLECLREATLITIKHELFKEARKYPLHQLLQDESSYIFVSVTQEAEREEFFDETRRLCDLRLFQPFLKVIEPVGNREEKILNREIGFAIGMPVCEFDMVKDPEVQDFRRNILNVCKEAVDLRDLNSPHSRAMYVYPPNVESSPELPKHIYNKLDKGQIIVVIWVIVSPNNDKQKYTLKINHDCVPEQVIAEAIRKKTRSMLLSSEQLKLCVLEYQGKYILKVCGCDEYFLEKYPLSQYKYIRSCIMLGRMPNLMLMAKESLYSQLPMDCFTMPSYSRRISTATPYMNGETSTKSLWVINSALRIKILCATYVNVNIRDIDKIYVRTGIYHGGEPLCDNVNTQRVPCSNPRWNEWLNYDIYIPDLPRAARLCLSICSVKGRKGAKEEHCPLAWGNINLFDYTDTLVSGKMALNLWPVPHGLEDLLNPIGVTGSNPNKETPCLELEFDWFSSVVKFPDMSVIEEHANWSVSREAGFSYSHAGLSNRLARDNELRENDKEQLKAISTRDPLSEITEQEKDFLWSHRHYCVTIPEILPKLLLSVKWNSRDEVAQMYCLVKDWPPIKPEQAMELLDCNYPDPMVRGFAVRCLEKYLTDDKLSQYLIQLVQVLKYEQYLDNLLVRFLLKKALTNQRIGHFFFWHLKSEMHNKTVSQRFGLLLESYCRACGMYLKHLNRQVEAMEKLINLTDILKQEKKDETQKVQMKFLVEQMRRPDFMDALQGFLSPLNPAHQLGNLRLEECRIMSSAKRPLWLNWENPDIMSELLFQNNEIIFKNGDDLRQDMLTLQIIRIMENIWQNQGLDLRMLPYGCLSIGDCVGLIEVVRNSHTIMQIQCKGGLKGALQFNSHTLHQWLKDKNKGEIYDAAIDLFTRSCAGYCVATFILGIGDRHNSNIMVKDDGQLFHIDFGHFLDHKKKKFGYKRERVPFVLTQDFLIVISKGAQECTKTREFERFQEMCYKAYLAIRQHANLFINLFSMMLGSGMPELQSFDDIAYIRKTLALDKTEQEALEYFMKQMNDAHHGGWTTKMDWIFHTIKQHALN
T1 sequence (P27986 whole entry partner): as the sequence (P27986 whole entry partner) above
T2 sequence (P42338 whole entry): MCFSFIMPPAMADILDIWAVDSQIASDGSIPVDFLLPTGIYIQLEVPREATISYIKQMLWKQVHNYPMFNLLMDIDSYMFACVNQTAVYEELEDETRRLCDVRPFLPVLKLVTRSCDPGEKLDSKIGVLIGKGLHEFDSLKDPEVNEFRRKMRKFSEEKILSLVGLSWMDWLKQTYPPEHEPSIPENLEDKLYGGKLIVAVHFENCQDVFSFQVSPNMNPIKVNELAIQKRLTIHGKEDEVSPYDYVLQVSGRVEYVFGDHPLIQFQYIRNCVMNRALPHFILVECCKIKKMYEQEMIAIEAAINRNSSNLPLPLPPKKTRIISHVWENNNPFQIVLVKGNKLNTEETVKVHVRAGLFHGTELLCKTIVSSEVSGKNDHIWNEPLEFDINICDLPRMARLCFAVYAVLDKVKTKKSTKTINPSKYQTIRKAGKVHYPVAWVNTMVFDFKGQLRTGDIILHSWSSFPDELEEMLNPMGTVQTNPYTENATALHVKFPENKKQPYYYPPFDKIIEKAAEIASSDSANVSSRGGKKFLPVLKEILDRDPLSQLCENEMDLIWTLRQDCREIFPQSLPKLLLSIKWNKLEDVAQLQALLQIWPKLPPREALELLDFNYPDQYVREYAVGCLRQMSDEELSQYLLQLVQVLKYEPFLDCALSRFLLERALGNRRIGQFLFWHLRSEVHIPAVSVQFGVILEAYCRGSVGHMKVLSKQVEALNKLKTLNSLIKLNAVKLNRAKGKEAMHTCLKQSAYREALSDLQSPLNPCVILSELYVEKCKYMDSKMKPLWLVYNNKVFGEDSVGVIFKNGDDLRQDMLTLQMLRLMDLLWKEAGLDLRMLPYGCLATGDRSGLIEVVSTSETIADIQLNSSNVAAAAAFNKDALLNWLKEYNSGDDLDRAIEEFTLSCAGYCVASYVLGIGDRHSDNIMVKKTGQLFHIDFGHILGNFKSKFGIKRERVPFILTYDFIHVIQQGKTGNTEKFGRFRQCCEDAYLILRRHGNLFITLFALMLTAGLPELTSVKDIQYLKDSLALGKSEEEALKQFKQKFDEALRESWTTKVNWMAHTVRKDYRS
T2 sequence (P27986 whole entry partner): as the sequence (P27986 whole entry partner) above

| pIC50 (PI3Kα) | pIC50 (PI3Kβ) | pIC50 (PI3Kγ) | pIC50 (PI3Kδ) | AUC(0-t) [1] | AUC(0-inf) [1] | half-life [1] | MRT [1] | Tmax [1] | Cmax [1] | Structure (SMILES) | other results |
| --- | --- | --- | --- | --- | --- | --- | --- | --- | --- | --- | --- |
| 8.28 | 6.03 | 6.35 | 6.51 | 4090 ng·h/mL | 4120 ng·h/mL | 1.2 h | 1.7 h | 30 min | 2300 ng/mL | C[C@H](Nc1ccc2c(c1F)OCCn1cc(N3C(=O)OC[C@H]3C(F)F)nc1-2)C(N)=O [Example 77, (S)-2-((2-((S)-4-(Difluoromethyl)-2-oxooxazolidin-3-yl)-8-fluoro-5,6-dihydrobenzo[f]imidazo[1,2-d][1,4]oxazepin-9-yl)amino)propanamide] |  |
| 8.62 | 6.33 | 6.61 | 6.71 | 4240 ng·h/mL | 4240 ng·h/mL | 2 h | 3.4 h | 30 min | 1230 ng/mL | C[C@H](Nc1ccc2c(c1F)OCCn1cc(N3C(=O)SC[C@H]3C(F)F)nc1-2)C(N)=O [Example 108, (S)-2-((2-((R)-4-(difluoromethyl)-2-oxothiazolidin-3-yl)-8-fluoro-5,6-dihydrobenzo[f]imidazo[1,2-d][1,4]oxazepin-9-yl)amino)propanamide] |  |

More lines, now with the values behind:

| Structure (SMILES) | pIC50 (PI3Kα) | pIC50 (PI3Kβ) | pIC50 (PI3Kγ) | pIC50 (PI3Kδ) | AUC(0-t) [1] | AUC(0-inf) [1] | half-life [1] | MRT [1] | Tmax [1] | Cmax [1] | other results |
| --- | --- | --- | --- | --- | --- | --- | --- | --- | --- | --- | --- |
| C[C@H](Nc1ccc2c(c1)OCCn1cc(N3C(=O)O[C@H](C)[C@H]3C(F)F)nc1-2)C(N)=O [Example 54, (S)-2-((2-((4S,5R)-4-(difluoromethyl)-5-methyl-2-oxooxazolidin-3-yl)-5,6-dihydrobenzo[f]imidazo[1,2-d][1,4]oxazepin-9-yl)amino)propanamide] | 8.92 | 5.74 | 6.32 | 6.47 | 1560 ng·h/mL | 1620 ng·h/mL | 1.8 h | 2 h | 60 min | 832 ng/mL |  |
| COC[C@H](Nc1ccc2c(c1)OCCn1cc(N3C(=O)SC[C@H]3C(F)F)nc1-2)C(N)=O [Example 110, (S)-2-((2-((R)-4-(difluoromethyl)-2-oxothiazolidin-3-yl)-5,6-dihydrobenzo[f]imidazo[1,2-d][1,4]oxazepin-9-yl)amino)-3-methoxypropanamide] | 9.00 | 6.12 | 6.42 | 6.86 | 13700 ng·h/mL | 13700 ng·h/mL | 2.8 h | 3.7 h | 30 min | 4020 ng/mL |  |
| NC(=O)[C@@H]1CCCN1c1ccc2c(c1)OCCn1cc(N3C(=O)SC[C@H]3C(F)F)nc1-2 [Example 111, (S)-1-(2-((R)-4-(difluoromethyl)-2-oxothiazolidin-3-yl)-5,6-dihydrobenzo[f]imidazo[1,2-d][1,4]oxazepin-9-yl)pyrrolidine-2-carboxamide] | 8.54 | 5.91 | 6.13 | 6.90 | 1740 ng·h/mL | 1740 ng·h/mL | 2.8 h | 3.9 h | 30 min | 466 ng/mL |  |
| C[C@H](Nc1ccc2c(c1)OCCn1cc(N3C(=O)OC[C@H]3C(F)F)nc1-2)C(N)=O [GDC-0077, reference compound] |  |  |  |  |  |  |  |  |  |  | main target organs of the toxicity ([2]; SD rats): gastrointestinal tissues (such as stomach and cecum) and immune tissues (such as thymus); Blood cell counting and coagulation function ([2]; SD rats, 10, 30 and 60 mg/kg): In each dose group, Retic decreased in both male and female animals; Pathology, pathological changes under the microscope ([2]; SD rats, 10, 30 and 60 mg/kg): atrophy of goblet cells in the cecal mucosa, increase in thymic tingible body macrophages, and erosion, bleeding and edema of gastric mucosal; Body weight and food intake [2, 4]: In the middle-dose and high-dose groups, the final body weight of all animals declined, and their food intake also declined during the same period; Clinical observation [2, 4]: In the high-dose group, abnormal symptoms such as arched back, loose stools, perianal contamination and fluffy coat were observed; Near-death/death ([2]; SD rats, dose of 60 mg/kg): near-dead/dead animals were found; lethal dose ([2]; SD rats, intragastric once/day for 7 days): 60 mg/kg; MTD at 7 days ([2]; both sexes, Sprague-Dawley, rat, in vivo, po, SD rats, intragastric once/day for 7 days, read-out: maximum tolerated dose (MTD)): 30 mg/kg; AUC ([3]; 10 mg/kg intragastric once a day, after the last administration, female): 2250 ng·h/mL; AUC ([3]; 10 mg/kg intragastric once a day, after the last administration, male): 845 ng·h/mL; AUC ([3]; 30 mg/kg intragastric once a day, after the last administration, female): 6510 ng·h/mL; AUC ([3]; 30 mg/kg intragastric once a day, after the last administration, male): 3000 ng·h/mL; AUC ([3]; 60 mg/kg intragastric, after the first administration, female): 22800 ng·h/mL; AUC ([3]; 60 mg/kg intragastric, after the first administration, male): 15400 ng·h/mL |
